Laboratory results reported in US20230416329A1, “A PEPTIDE WITH DISULFIDE BONDS AND INHIBITORY ACTIVITY AGAINST SERINE PROTEASES, DERIVED HYBRID PEPTIDES THEREOF, AND USES THEREOF” (INSTITUTE OF MATERIA MEDICA , CHINESE ACADEMY OF MEDICAL …, priority 2020, published 2023).

Legend:
chymotrypsin = chymotrypsin (Bos taurus, UniProt P00766); experiment: in vitro; conditions: isolated enzyme chymotrypsin, pH 7.8, Remaining peak area (%)/chymotrypsin
How it was run: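 Peptide and 0.05 μg/μL chymotrypsin were preincubated at 37 °C for 5 min, then mixed. Aliquots taken from 1.5 up to 60.0 min were quenched with 10% TFA, and remaining peptide was measured as RP-HPLC peak area.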

NEP24.11 = NEP24.11 (Homo sapiens, UniProt P08473); experiment: Tolerance of GLP-1 and its analogues to NEP24.11 (RP-HPLC remaining peak area); format: in vitro ADME; conditions: peptide 30 μM, NEP24.11 1.0 ng/μL, 37° C.; for Remaining peak area (%)/NEP24.11: 0.0 h; for remaining at 0.5 h, 30 μM / remaining at 2 h, 30 μM / remaining at 4 h, 30 μM / remaining at 8 h, 30 μM: isolated NEP24.11 enzyme in buffer; for remaining at 0.5 h, 30 μM: pH 7.4, 0.5 h; for remaining at 2 h, 30 μM: pH 7.4, 2.0 h; for remaining at 4 h, 30 μM: pH 7.4, 4.0 h; for remaining at 8 h, 30 μM: pH 7.4, 8.0 h, read-out: Remaining peak area (%)/NEP24.11
Sequence of NEP24.11 (P08473 whole entry): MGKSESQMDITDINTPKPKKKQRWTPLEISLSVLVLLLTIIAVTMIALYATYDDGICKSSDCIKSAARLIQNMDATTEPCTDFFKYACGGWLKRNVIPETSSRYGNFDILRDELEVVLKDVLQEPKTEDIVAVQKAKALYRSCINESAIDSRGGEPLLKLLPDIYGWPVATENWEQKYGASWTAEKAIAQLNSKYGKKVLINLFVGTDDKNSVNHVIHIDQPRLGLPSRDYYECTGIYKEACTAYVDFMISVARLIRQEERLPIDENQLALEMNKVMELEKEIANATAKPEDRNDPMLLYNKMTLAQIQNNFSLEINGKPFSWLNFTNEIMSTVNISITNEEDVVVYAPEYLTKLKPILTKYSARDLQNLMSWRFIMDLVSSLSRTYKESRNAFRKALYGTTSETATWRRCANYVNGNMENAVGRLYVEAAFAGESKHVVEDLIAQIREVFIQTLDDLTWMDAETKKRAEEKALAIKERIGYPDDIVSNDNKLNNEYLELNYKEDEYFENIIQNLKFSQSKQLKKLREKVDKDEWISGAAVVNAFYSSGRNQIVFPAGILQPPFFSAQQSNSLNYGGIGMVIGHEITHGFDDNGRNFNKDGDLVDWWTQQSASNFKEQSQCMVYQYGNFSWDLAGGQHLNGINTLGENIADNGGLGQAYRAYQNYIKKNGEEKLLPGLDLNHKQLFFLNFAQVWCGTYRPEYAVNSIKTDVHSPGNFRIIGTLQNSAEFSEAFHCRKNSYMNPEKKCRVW
Experimental: (§1) Mix by centrifugation at 8000 rpm for 30 seconds.
Arrange a certain volume of 0.04 μg/μL NEP24.11 enzyme solution in another sterile EP.

DPP-IV = DPP-IV (Homo sapiens, UniProt P27487); experiment: Tolerance of GLP-1 and its analogues to DPP-IV (RP-HPLC remaining peak area); format: in vitro ADME; conditions: peptide 25 μM, DPP-IV 0.5 ng/μL, 37° C.; for Remaining peak area (%)/DPP-IV: 0.0 h; for remaining at 0.5 h, 25 μM / remaining at 2 h, 25 μM / remaining at 4 h, 25 μM / remaining at 8 h, 25 μM / remaining at 12 h, 25 μM: isolated DPP-IV enzyme in buffer, pH 8
Sequence of DPP-IV (P27487 whole entry, species assumed): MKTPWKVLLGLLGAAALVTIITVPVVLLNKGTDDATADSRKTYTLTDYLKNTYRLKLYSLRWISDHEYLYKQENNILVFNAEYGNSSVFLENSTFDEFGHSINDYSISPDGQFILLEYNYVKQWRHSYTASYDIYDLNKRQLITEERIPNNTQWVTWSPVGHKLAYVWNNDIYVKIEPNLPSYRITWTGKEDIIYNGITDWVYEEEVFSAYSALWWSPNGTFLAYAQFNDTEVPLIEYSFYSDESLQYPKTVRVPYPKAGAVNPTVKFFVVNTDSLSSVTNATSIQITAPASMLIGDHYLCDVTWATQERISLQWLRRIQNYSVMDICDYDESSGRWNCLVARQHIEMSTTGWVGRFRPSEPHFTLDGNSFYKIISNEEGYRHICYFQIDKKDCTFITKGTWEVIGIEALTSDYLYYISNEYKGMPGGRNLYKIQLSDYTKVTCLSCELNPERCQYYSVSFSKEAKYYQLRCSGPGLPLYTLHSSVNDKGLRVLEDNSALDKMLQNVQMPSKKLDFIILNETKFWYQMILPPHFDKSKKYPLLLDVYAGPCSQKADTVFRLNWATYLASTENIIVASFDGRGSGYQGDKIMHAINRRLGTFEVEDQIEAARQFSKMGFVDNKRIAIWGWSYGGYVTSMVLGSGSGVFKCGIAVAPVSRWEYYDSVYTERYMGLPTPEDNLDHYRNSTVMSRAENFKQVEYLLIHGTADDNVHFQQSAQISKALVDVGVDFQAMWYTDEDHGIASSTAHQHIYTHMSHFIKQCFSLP
Experimental: as §1
(2) Arrange a certain volume of 0.005 μg/μL DPP-IV solution in another sterile EP.

trypsin = biological target: T1, trypsin (Bos taurus, UniProt P00760); experiment: in vitro
T1 sequence (P00760 24-246): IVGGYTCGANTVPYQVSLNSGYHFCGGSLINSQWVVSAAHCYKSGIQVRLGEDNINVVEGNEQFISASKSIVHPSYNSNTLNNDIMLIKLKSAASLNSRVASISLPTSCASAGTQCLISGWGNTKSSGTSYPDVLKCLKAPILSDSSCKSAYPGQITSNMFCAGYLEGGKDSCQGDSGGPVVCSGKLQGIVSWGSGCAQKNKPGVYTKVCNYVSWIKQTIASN
Experimental: FIG. 17. […] At different time point, 25 μL aliquots was taken out, and 10% (v/v) TFA was added to terminate the reaction.
as §1
(§2) Arrange a certain volume of 0.05 μg/μL trypsin solution in another sterile EP. Incubate the EP tubes containing peptides and enzymes at 37° C. for 5 min, and separately add 6 μL of trypsin solution to each EP tube containing peptides and mix well. Start timing and extract 25 μL of reaction solution at 1.5, 3.0, 4.5, 6.0 and 9.0 min later, respectively. Add 3.75 μL of 10% TFA to terminate the reaction and mix well by centrifugation at 8000 rpm for 30 seconds.
as §2, with “and” for “and separately”, “9” for “6”, “6.0, 9.0, 15.0, 30.0,” for “6.0”, “60.0” for “9.0”
Referring to the experimental method in Example 5, in vitro stability of salmon Calcitonin analogs with oral administration activity to the enzymatic hydrolysis by trypsin, chymotrypsin and elastase were performed.
Referring to the experimental method in Example 5, in vitro stability of IL-17A inhibitory peptides towards the enzymatic hydrolysis by trypsin, chymotrypsin and elastase were performed.

[1] = isolated enzyme trypsin, pH 7.8

| Structure (SMILES) | remaining at 0.025 h, 60 μM (chymotrypsin) [%] | remaining at 0.05 h, 60 μM (chymotrypsin) [%] | remaining at 0.075 h, 60 μM (chymotrypsin) [%] | remaining at 0.1 h, 60 μM (chymotrypsin) [%] | remaining at 0.15 h, 60 μM (chymotrypsin) [%] | Remaining peak area (%)/NEP24.11 (NEP24.11) [%] | remaining at 0.5 h, 30 μM (NEP24.11) [%] | remaining at 2 h, 30 μM (NEP24.11) [%] | remaining at 4 h, 30 μM (NEP24.11) [%] | remaining at 8 h, 30 μM (NEP24.11) [%] | Remaining peak area (%)/DPP-IV (DPP-IV) [%] | remaining at 0.5 h, 25 μM (DPP-IV) [%] | remaining at 2 h, 25 μM (DPP-IV) [%] | remaining at 4 h, 25 μM (DPP-IV) [%] | remaining at 8 h, 25 μM (DPP-IV) [%] | remaining at 12 h, 25 μM (DPP-IV) [%] | remaining at 0.025 h, 60 μM (trypsin; [1]) [%] | remaining at 0.05 h, 60 μM (trypsin; [1]) [%] | remaining at 0.075 h, 60 μM (trypsin; [1]) [%] | remaining at 0.1 h, 60 μM (trypsin; [1]) [%] | also measured |
| --- | --- | --- | --- | --- | --- | --- | --- | --- | --- | --- | --- | --- | --- | --- | --- | --- | --- | --- | --- | --- | --- |
| CC[C@H](C)[C@H](NC(=O)[C@H](Cc1ccccc1)NC(=O)[C@H](CCC(=O)O)NC(=O)[C@H](CCCCN)NC(=O)[C@H](C)NC(=O)[C@H](C)NC(=O)[C@H](CCC(N)=O)NC(=O)CNC(=O)[C@H](CCC(=O)O)NC(=O)[C@H](CC(C)C)NC(=O)[C@H](Cc1ccc(O)cc1)NC(=O)[C@H](CO)NC(=O)[C@H](CO)NC(=O)[C@@H](NC(=O)[C@H](CC(=O)O)NC(=O)[C@H](CO)NC(=O)[C@@H](NC(=O)[C@H](Cc1ccccc1)NC(=O)[C@@H](NC(=O)CNC(=O)[C@H](CCC(=O)O)NC(=O)[C@H](C)NC(=O)[C@H](Cc1c[nH]cn1)NC(=O)CNC(=O)CNC(=O)[C@H](CCCNC(=N)N)NC(=O)[C@H](CO)NC(=O)[C@H](Cc1ccccc1)NC(=O)[C@H](CCCNC(=N)N)NC(=O)[C@H](CCC(N)=O)NC(=O)CNC(=O)CNC(=O)[C@H](Cc1ccccc1)NC(=O)[C@@H]1CSSC[C@H](N)C(=O)NCC(=O)N[C@@H](CCCNC(=N)N)C(=O)N[C@@H](C)C(=O)N[C@@H]([C@@H](C)O)C(=O)N[C@@H](CCCCN)C(=O)N[C@@H](CO)C(=O)N[C@@H]([C@@H](C)CC)C(=O)N2CCC[C@H]2C(=O)N2CCC[C@H]2C(=O)N[C@@H]([C@@H](C)CC)C(=O)N1)[C@@H](C)O)[C@@H](C)O)C(C)C)C(=O)N[C@@H](C)C(=O)N[C@@H](Cc1c[nH]c2ccccc12)C(=O)N[C@@H](CC(C)C)C(=O)N[C@H](C(=O)N[C@@H](CCCCN)C(=O)NCC(=O)N[C@@H](CCCNC(=N)N)C(=O)NCC(=O)NCC(=O)N[C@@H](CCCCN)C(=O)O)C(C)C [BT9-N-GLP-1] | 77.1 ± 1.8 | 57.7 ± 2 | 50.4 ± 3.2 | 41.2 ± 3.1 | 26 ± 2.9 | 100.0 ± 0.0 | 76.4 ± 1.1 | 63.5 ± 1.9 | 47 ± 4.3 | 41.8 ± 2.7 | 100.0 ± 0.0 | 92.5 ± 1.5 | 88 ± 1.8 | 79.4 ± 2.2 | 76.1 ± 1.4 | 71.2 ± 2.1 | 90.8 ± 0.5 | 90.4 ± 2 | 91 ± 2.1 | 91.1 ± 3 | remaining at 0.15 h, 60 μM (trypsin; [1]): 90.9 ± 3.1%; remaining at 0.25 h, 60 μM (trypsin; [1]): 86.6 ± 3.5%; remaining at 0.5 h, 60 μM (trypsin; [1]): 86.5 ± 3.5%; remaining at 1 h, 60 μM (trypsin; [1]): 74.4 ± 2.6% |
| CC[C@H](C)[C@H](NC(=O)[C@H](Cc1ccccc1)NC(=O)[C@H](CCC(=O)O)NC(=O)[C@H](CCCCN)NC(=O)[C@H](C)NC(=O)[C@H](C)NC(=O)[C@H](CCC(N)=O)NC(=O)CNC(=O)[C@H](CCC(=O)O)NC(=O)[C@H](CC(C)C)NC(=O)[C@H](Cc1ccc(O)cc1)NC(=O)[C@H](CO)NC(=O)[C@H](CO)NC(=O)[C@@H](NC(=O)[C@H](CC(=O)O)NC(=O)[C@H](CO)NC(=O)[C@@H](NC(=O)[C@H](Cc1ccccc1)NC(=O)[C@@H](NC(=O)CNC(=O)[C@H](CCC(=O)O)NC(=O)[C@H](C)NC(=O)[C@H](Cc1c[nH]cn1)NC(=O)CNC(=O)CNC(=O)[C@@H](NC(=O)[C@@H]1CCCN1C(=O)[C@@H](NC(=O)CNC(=O)CNC(=O)[C@H](CCCNC(=N)N)NC(=O)[C@H](CO)NC(=O)[C@H](Cc1ccccc1)NC(=O)[C@H](CCCNC(=N)N)NC(=O)[C@H](CCC(N)=O)NC(=O)CNC(=O)CNC(=O)[C@@H]1CSSC[C@H](N)C(=O)N2CCC[C@H]2C(=O)N[C@@H](CCCCN)C(=O)N[C@@H]([C@@H](C)CC)C(=O)N[C@@H](CC(C)C)C(=O)N[C@@H](CCC(N)=O)C(=O)N[C@@H](CCCNC(=N)N)C(=O)N1)[C@@H](C)CC)[C@@H](C)CC)[C@@H](C)O)[C@@H](C)O)C(C)C)C(=O)N[C@@H](C)C(=O)N[C@@H](Cc1c[nH]c2ccccc12)C(=O)N[C@@H](CC(C)C)C(=O)N[C@H](C(=O)N[C@@H](CCCCN)C(=O)NCC(=O)N[C@@H](CCCNC(=N)N)C(=O)NCC(=O)NCC(=O)N[C@@H](CCCCN)C(=O)O)C(C)C [DNT-GLP-1] | 97 ± 5.7 | 89.8 ± 0.9 | 85.1 ± 4.4 | 84.3 ± 2 | 78.2 ± 2.1 | 100.0 ± 0.0 | 82.2 ± 1.3 | 79.1 ± 1.7 | 77.9 ± 4.2 | 67.8 ± 4.7 | 100.0 ± 0.0 | 108 ± 9.3 | 108 ± 1.7 | 105 ± 2.3 | 105 ± 1.7 | 97.4 ± 2.1 | 68.3 ± 5.9 | 44.9 ± 3.5 | 21.2 ± 1.1 | 0 | stability towards trypsin hydrolysis (in words) (trypsin): completely degraded; remaining at 0.15 h, 60 μM (trypsin; [1]): 0% |
